ChEMBL document CHEMBL1201862, “PubChem BioAssay data set” (2004)
Active and inactive are the calls of the source. Numbered stars: 1 amine (or outer) side, 2 acyl side, 3 side chain; on linkers, the order of the positions; unused ones are H or OH. Square brackets hold non-standard residues; d marks the D form. Peptide text beside a SMILES is read from it. ξ: configuration not given here. ξR = N=C(N)NCCCC(N)C(=O)O; ξF = NC(Cc1ccccc1)C(=O)O; CO = O=C([*:1])[*:2]

What was measured:
[1] = HIV-1 AD8 envelope cell-cell fusion blockers – cherry-pick, dose response (AID 652062); assay type: functional, cell-based;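 also: luciferase signal from cell-cell fusion driven by HIV-1 clade B AD8 Env; potency is for inhibitors of fusion seen as a drop in luminescence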
[2] = viability loss in CEM21 cells – cell-based, CellTiter-Glo luminescence, cherry-picked, cytotoxicity control for viral fusion inhibitor project, dose response (AID 652042); assay type: functional;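 also: potency for signal decrease meaning cytotoxicity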
[3] = off-target signal loss in HeLa-CEM21 co-culture – HeLa F-luc CTL cells, cherry-picked, counter-screen for HIV-1 Env fusion inhibitor project, dose response (AID 652040); assay type: functional, cell-based;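 also: potency for signal decrease marking cytotoxic or nonspecific inhibition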
[4] = blockers of HIV-1 envelope-mediated cell-cell fusion – cherry-pick, dose response (AID 652057); assay type: functional, cell-based
[5] = blockers of HIV-1 ZM109 envelope-driven cell-cell fusion – HeLa effector, CEM target cells, luciferase, cherry-pick, dose response (AID 652058); assay type: functional, cell-based;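 also: luciferase signal from HIV-1 Env mediated cell-cell fusion of effector and target cells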
[6] = target: T1, Latent membrane protein 1 (Human herpesvirus 4 (strain B95-8), UniProt P03230); assay: LMP1 TES1 pathway selectivity over dsRED control – imaging, HEK293T, dual-color eGFP/dsRED, cherry-picks, selectivity assay for LMP1 NF-kB inhibitor project, dose response (AID 588398); assay type: functional, cell-based
T1 sequence (P03230 whole entry): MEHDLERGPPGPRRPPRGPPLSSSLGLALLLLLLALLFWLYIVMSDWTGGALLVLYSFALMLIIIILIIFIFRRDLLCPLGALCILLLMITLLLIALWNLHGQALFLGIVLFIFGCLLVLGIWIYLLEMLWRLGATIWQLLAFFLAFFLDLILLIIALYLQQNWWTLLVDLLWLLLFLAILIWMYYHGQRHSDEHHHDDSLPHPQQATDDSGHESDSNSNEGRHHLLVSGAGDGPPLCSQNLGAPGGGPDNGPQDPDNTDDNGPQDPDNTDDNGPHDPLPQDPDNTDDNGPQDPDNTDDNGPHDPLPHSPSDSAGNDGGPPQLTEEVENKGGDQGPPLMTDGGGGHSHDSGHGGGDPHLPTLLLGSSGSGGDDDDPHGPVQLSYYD

[7] = target: T2, Type-1 angiotensin II receptor (Homo sapiens, UniProt P30556); assay: antagonism of angiotensin II type 1 receptor – cell-based, uHTS hits, selectivity assay for APJ receptor antagonist project, dose response (AID 463214); assay type: functional;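 also: antagonist potency against angiotensin II stimulated AT1 response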
T2 sequence (P30556 whole entry): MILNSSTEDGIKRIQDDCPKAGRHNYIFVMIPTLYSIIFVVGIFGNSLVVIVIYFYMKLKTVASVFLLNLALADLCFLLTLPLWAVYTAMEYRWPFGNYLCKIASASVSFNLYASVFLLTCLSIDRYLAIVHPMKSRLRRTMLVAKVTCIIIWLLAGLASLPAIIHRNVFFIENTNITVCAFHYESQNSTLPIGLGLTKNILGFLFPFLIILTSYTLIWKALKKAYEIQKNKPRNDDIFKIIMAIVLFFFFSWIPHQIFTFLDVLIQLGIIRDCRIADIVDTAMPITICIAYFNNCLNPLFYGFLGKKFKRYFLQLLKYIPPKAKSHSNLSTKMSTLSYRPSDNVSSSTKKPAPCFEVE

Beta-galactosidase = Beta-galactosidase (Escherichia coli, UniProt Q8VNN2); assay: PubChem AID 485352; assay type: functional
Beta-galactosidase, sequence (Q8VNN2 whole entry): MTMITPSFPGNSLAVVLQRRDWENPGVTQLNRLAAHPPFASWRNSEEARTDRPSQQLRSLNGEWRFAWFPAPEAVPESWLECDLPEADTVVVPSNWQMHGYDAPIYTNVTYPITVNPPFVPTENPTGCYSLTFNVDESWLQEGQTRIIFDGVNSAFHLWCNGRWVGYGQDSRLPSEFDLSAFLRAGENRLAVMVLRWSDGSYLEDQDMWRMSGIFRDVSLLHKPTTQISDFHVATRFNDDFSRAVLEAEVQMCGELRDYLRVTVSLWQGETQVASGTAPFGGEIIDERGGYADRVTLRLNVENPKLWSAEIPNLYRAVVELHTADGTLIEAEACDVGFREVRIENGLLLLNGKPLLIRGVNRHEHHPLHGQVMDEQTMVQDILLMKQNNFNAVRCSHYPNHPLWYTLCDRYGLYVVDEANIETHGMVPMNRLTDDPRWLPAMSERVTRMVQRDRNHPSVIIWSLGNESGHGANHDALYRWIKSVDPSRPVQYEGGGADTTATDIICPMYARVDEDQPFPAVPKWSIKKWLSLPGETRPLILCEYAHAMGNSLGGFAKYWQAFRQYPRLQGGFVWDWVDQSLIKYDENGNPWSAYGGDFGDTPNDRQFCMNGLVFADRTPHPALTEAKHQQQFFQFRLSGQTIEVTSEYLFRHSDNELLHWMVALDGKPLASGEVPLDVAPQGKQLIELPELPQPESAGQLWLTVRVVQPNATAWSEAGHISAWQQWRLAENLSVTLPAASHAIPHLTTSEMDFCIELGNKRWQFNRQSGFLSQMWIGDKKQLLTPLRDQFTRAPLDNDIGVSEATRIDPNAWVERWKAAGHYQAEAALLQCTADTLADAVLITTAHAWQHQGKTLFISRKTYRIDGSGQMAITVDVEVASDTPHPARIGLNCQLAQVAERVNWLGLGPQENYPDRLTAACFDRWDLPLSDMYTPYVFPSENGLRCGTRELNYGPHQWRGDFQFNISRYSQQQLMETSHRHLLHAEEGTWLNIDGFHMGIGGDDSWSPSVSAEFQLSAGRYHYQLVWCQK

Cytochrome P450 2C9 = Cytochrome P450 2C9 (Homo sapiens, UniProt P11712)
Cytochrome P450 2C9, sequence (P11712 whole entry): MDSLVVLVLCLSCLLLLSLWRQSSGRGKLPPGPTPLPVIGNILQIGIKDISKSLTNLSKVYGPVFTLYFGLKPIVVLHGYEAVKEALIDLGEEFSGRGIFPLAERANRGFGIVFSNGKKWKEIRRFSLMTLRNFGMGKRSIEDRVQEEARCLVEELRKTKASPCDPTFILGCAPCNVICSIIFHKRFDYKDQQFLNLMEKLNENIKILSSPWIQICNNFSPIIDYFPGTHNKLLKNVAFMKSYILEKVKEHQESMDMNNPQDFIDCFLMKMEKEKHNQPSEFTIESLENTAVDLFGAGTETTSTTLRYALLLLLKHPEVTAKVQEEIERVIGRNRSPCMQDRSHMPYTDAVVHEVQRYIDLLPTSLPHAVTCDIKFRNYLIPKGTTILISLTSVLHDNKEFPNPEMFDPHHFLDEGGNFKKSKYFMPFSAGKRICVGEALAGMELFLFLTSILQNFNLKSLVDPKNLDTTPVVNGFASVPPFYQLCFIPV

HEK293 = assay: EBV LMP1 TES2 canonical NF-kB signalling blockers – cell-based, HEK293, luciferase, cherry-pick, dose response (AID 588343); assay type: functional; settings: Homo sapiens
Vero = assay: cells; assay type: functional, cell-based; settings: Chlorocebus sabaeus
[8] = target: T3, Short transient receptor potential channel 4 (Mus musculus, UniProt Q9QUQ5); assay: block of DAMGO-driven TRPC4 calcium entry – cell-based, HEK293 TRPC4/mu-opioid, Fluo-4 calcium, dose response (AID 434942); assay type: functional;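 also: potency of inhibitors blocking the TRPC4 calcium response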
T3 sequence (Q9QUQ5 whole entry): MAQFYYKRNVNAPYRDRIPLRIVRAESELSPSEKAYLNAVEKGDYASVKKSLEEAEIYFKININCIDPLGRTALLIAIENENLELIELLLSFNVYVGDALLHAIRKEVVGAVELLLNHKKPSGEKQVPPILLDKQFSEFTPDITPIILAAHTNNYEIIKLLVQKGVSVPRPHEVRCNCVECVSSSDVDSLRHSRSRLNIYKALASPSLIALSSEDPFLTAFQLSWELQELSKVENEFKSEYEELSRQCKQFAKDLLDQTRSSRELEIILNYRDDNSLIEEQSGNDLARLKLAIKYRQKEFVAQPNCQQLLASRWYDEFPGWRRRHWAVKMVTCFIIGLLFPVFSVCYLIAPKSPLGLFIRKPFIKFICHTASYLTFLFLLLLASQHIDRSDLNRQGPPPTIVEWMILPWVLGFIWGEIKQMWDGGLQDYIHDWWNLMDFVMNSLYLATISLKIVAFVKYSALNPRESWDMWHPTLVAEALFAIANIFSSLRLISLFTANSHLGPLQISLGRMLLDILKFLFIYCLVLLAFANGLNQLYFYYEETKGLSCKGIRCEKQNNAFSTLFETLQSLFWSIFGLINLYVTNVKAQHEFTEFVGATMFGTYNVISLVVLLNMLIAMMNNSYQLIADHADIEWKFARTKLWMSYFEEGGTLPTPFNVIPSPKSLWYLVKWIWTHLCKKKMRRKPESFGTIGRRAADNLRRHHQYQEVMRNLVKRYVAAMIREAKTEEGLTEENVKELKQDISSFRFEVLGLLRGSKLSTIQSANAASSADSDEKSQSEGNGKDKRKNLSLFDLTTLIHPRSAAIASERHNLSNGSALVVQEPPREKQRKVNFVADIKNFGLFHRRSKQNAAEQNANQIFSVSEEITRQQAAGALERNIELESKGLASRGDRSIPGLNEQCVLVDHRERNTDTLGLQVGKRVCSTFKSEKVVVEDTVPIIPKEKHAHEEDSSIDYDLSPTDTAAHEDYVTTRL

[9] = target: T3, Short transient receptor potential channel 4; assay: calcium entry via TRPC4 opening agents – cell-based, HEK293 TRPC4/mu-opioid, Fluo-4 calcium, dose response (AID 434937); assay type: functional
[10] = Luminescence Cell-Based Dose Retest to Confirm Inhibitors of Cancer Stem Cells. [Related pubchem assays (depositor defined):AID2717, AID2721]; assay type: functional; settings: Homo sapiens
Coagulation factor XII = target: T4, Coagulation factor XII (Homo sapiens, UniProt P00748); assay type: functional;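 also: activated factor XIIa alpha cleaving a fluorogenic AMC peptide substrate; inhibitor potency from loss of enzyme activity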
T4 sequence (P00748 whole entry): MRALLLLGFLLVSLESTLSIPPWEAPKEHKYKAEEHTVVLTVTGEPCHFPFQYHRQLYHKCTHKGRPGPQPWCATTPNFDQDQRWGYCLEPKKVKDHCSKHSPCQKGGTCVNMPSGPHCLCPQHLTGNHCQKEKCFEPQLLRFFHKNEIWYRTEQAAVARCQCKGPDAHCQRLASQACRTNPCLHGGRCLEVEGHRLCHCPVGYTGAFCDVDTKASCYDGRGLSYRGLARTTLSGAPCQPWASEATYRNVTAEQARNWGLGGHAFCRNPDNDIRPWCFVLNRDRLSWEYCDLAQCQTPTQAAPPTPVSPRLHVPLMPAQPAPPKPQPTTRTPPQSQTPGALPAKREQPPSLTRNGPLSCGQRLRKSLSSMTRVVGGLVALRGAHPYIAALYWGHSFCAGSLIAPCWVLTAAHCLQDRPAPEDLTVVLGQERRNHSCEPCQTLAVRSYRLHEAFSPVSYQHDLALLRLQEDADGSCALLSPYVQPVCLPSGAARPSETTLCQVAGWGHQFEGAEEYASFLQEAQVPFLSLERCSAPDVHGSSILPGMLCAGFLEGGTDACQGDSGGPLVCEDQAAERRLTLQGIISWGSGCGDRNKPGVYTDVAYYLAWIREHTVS

CCCCN1C(=O)C(O)(c2ccccc2)c2cc(Br)ccc21 (centres undefined)
AC50 [1]: 7.82 µM (active)
AC50 [2]: 48.2 µM (active)
AC50 [3]: 6.01 µM (active)
AC50 [4]: 4.89 µM (active)
AC50 [5]: 4.73 µM (active)

COc1cc(OC)cc(C(=O)N[C@H](C(=O)OCC(=O)c2ccc(C)c([N+](=O)[O-])c2)C(C)C)c1
AC50 [6]: 42.8 µM (active)
IC50 [7]: > 40 µM (not active)
EC50 (Beta-galactosidase): > 40 µM (inactive)

NC(=O)c1nn(-c2ccccc2)c(=O)cc1O
AC50 (Cytochrome P450 2C9): inconclusive

COc1cc2c(=O)n(CC3CCCO3)c(=O)n(CC(=O)Nc3cccc(Cl)c3)c2cc1OC (centres undefined)
AC50 [6]: 277 µM (active)
AC50 (HEK293): 84.3 µM (active)

CNc1cccnc1C=NNC(N)=S
AC50 [1]: 1.94 µM (active)
AC50 [2]: 5.69 µM (active)
AC50 [3]: 9.89 µM (active)
AC50 [6]: 6.42 µM (active)
AC50 [4]: 0.457 µM (active)
AC50 (HEK293): 2.43 µM (active)
AC50 [5]: 0.805 µM (active)

OC1(c2cccs2)C[N+](c2ccc(Cl)cc2)=C2CCCCN21 (centres undefined)
IC50 (Vero): 8.4 µM (active)
EC50 [8]: 2.66 µM (active)

O=C(NC1CCCc2ccccc21)c1ccc(O)nc1 (centres undefined)
AC50 (Cytochrome P450 2C9): inconclusive

COC(=O)[C@]12C[C@H](CC(=O)NCc3cccs3)C(=O)N(CCC3=CCCCC3)C1=C[C@H](C(C)(C)C)O[C@@H]2C
AC50 [1]: 5.01 µM (active)
AC50 [2]: 51.6 µM (active)
AC50 [3]: 1.72 µM (active)
AC50 [4]: 1.18 µM (active)
AC50 [5]: 1.91 µM (active)

O=C(N/N=C/c1cccnc1)c1ccccc1OCc1ccc(Cl)cc1
EC50 [9]: 3.35 µM (active)
EC50 [8]: 1.5 µM (active)

CN1CCN(/N=C/c2ccc(N(c3ccccc3)c3ccccc3)cc2)CC1
AC50 [6]: 0.147 µM (active)
AC50 [10]: 5.11 µM (active)
AC50 (HEK293): 0.907 µM (active)

O=C(c1ccco1)C(O)c1ccco1 (centres undefined)
IC50 [7]: 35.2 µM (not active)
EC50 (Beta-galactosidase): > 40 µM (inactive)

CC(C)[C@H](NC(=O)[C@H](CCCN=C(N)N)NC(=O)NC(Cc1ccccc1)C(=O)O)C(=O)NC(C=O)CCCN=C(N)N (stereo partly drawn) ({ξF-CO}-Arg-Val-[ξR]-aldehyde)
IC50 (Coagulation factor XII): 5.87 µM (active)
